SMILES strings stand for the structures. Counter-ions that a name gives are not always drawn.

From US6914066B2, “1,2-annelated quinoline derivatives” (Janssen Pharmaceutica N.V., priority 1998, dated 2005) come the findings set out here.

One may read the melting point as the temperature of the solid-liquid transition. `CCOC(=O)c1cn2c(cc(-c3cccc(Cl)c3)c3cc(C(O)(c4ccc(Cl)cc4)c4cncn4C)ccc32)n1` (centres unmarked) [Comp 95]: the melting point came out at 143 °C.
On to `CNCC(=O)NC(c1ccc(Cl)cc1)(c1ccc2c(c1)c(-c1cccc(Cl)c1)cc1nnnn12)c1cncn1C` (centres unmarked) [Comp 121], for which the melting point worked out at 224 °C.
The same measure for `Cn1cncc1C(O)(c1ccc(Cl)cc1)c1ccc2c(c1)c(-c1cccc(Cl)c1)c(C(N)=O)c1nnnn12` (centres unmarked) [Comp 80]: over 250 °C; for `Cn1cncc1C(O)(c1ccc(Cl)cc1)c1ccc2c(c1)c(-c1cccc(Cl)c1)cc1cnnn12` (racemic) [Comp 26, (±)-5-(3-chlorophenyl)-α-(4-chlorophenyl)-α-(1-methyl-1H-imidazol-5-yl)-[1,2,3]triazolo[1,5-a]quinoline-7-methanol]: 222 °C.
The same measure for `Cn1cncc1C(N)(c1ccc(Cl)cc1)c1ccc2c(c1)c(-c1cccc(Cl)c1)cc1nnnn12` (centres unmarked) [Comp 28]: 180 °C; for `Cn1cncc1C(O)(c1ccc(Cl)cc1)c1ccc2c(c1)c(-c1cccc(Cl)c1)c(C(=O)O)c1nnnn12` (centres unmarked) (as salt: hydrochloride) [Comp 53]: over 260 °C; for `Cn1cncc1C(N)(c1ccc(Cl)cc1)c1ccc2c(c1)c(-c1cccc(Cl)c1)c(C(N)=O)c1nnnn12` (centres unmarked) [Comp 77]: over 250 °C.
On to `CN1c2nnnn2-c2ccc(C(O)(c3ccc(Cl)cc3)c3cncn3C)cc2C1c1cccc(Cl)c1` (racemic) [Comp 33, (±)-5-(3-chlorophenyl)-α-(4-chlorophenyl)-4,5-dihydro-4methyl-α-(1-methyl-1H-imidazol-5-yl)tetrazolo[1,5-a]quinazoline-7-methanol], for which the melting point came to 235 °C.
The same measure for `Cn1cncc1C(N)(c1ccc(Cl)cc1)c1ccc2c(c1)c(-c1cccc(Cl)c1)nc1nnnn12` (racemic) [Comp 32, (±)-5-(3-chlorophenyl)-α-(4-chlorophenyl)-α-(1-methyl-1H-imidazol-5-yl)tetrazolo[1,5-a]quinazoline-7-methanamine]: 159 °C.
Take `CNC(c1ccc(Cl)cc1)(c1ccc2c(c1)c(-c1cccc(Cl)c1)cc1nnnn12)c1cncn1C` (centres unmarked) [Comp 48]: the melting point stood at 167 °C.
Molecule `Cn1cncc1C(O)(c1ccc(Cl)cc1)c1ccc2c(c1)C(c1cccc(Cl)c1)Nc1nnnn1-2` (racemic) [Comp 30, (±)5-(3-chlorophenyl)-α-(4-chlorophenyl)4,5-dihydro-α-(1-methyl-1H-imidazol-5-yl)tetrazolo[1,5-a]quinazoline-7-methanol] returned a melting point of 212 °C.
The same measure for `Cn1cncc1C(OCCO)(c1ccc(Cl)cc1)c1ccc2c(c1)c(-c1cccc(Cl)c1)cc1nnnn12` (centres unmarked) (hydrate or solvate) [Comp 41]: 150 °C.
For the molecule `Cn1cncc1C(O)(c1ccc(Cl)cc1)c1ccc2c(c1)c(-c1cccc(Cl)c1)nc1nnnn12` (racemic) [Comp 29, (±)-5-(3-chlorophenyl)-α-(4-chlorophenyl)-α-(1-methyl-1H-imidazol-5-yl)tetrazolo[1,5-a]quinazoline-7-methanol], the melting point worked out at 139 °C.
Next, `CNc1ncc(C(c2ccc(Cl)cc2)c2ccc3c(c2)c(-c2cccc(Cl)c2)cc2nnnn23)n1C` (centres unmarked) [Comp 49]: 206 °C; `Cn1cncc1C(N)(c1ccc(Cl)cc1)c1ccc2c(c1)c(-c1cccc(Cl)c1)cc1nnnn12` (centres unmarked) [Comp 27]: 172 °C; `Fc1ccc(C(c2ccc3c(c2)c(-c2ccccc2)cc2nccn23)n2ccnc2)cc1` (racemic) (hydrate or solvate) [Comp 3, (±)-7-[(4fluorophenyl)(1H-imidazol-1-yl)methyl]-5-phenylimidazo[1,2-a]quinoline ethanedioate(2:3).hemihydrate]: 204.3 °C.
The same measure for `Cn1cncc1C(NO)(c1ccc(Cl)cc1)c1ccc2c(c1)c(-c1cccc(Cl)c1)cc1cnnn12` (centres unmarked) [Comp 98]: 191 °C.
Consider `Cn1cncc1C(O)(c1ccc(Cl)cc1)c1ccc2c(c1)c(-c1cccc(Cl)c1)c(CO)c1nnnn12` (centres unmarked) (as salt: hydrochloride) [Comp 82], for which the melting point was over 280 °C.
The same measure for `O=c1[nH]nc2cc(-c3ccccc3)c3cc(C(c4ccc(Cl)cc4)n4ccnc4)ccc3n12` (racemic) (hydrate or solvate) [Comp 7, (±)-7-[(4-chlorophenyl)-1H-imidazol-1-ylmethyl]-5-phenyl[1,2,4]triazolo[4,3-a]quinolin-1(2H)-one ethanedioate(1:1).hemihydrate]: 198.3 °C; for `Cn1cncc1C(c1ccc(Cl)cc1)c1ccc2c(c1)c(-c1cccc(Cl)c1)cc1nnnn12` (centres unmarked) [Comp 94]: 166 °C.
